Values quoted from earlier work as cited in patent publication US20210319872A1, “DRUG AND DEVICE COMBINATION PRODUCTS WITH IMPROVED SAFETY AND EFFICACY PROFILES” (priority 2016, published 2021).
Read-outs that look alike come from different tables or passages of the source.

[1] = chronic hepatitis C-associated thrombocytopenia
[2] = chronic idiopathic thrombocytopenic purpura
[3] = nonvalvular atrial fibrillation

## NCCCC[C@H](N[C@@H](CCc1ccccc1)C(=O)O)C(=O)N1CCC[C@H]1C(=O)O [Lisinopril (Prinivil, Zestril)]
In vivo
  Dizziness: Neurologic: Dizziness (12% to 19%), Headache
  Hyperkalemia: Endocrine metabolic: Hyperkalemia (2.2% to 6%)
  Hypotension: Cardiovascular: Chest pain, Hypotension (up to 11%), Syncope
  Hypotension (Severe): Cardiovascular: Hypotension (Severe) (9%)
  Renal impairment: Renal: Acute renal failure, Renal impairment (2.4%)
  Stevens-Johnson syndrome: Dermatologic: Stevens-Johnson syndrome (1% or more), Toxic
  Syncope: (5% to 7%)

## CC(C)(C)NCC(O)COc1cccc2c1CCC(=O)N2 (centres unmarked) [Carteolol (Cartrol)]
In vivo
  Asthenia: Neurologic: Asthenia (7%.), Dizziness (4% to 15%.), Headache
  Burning sensation in eye: Ophthalmic: Blurred vision, Burning sensation in eye (25%),
  Conjunctival edema: Conjunctival edema (25%), Conjunctival hyperemia (25%),
  Conjunctival hyperemia: Conjunctival edema (25%), Conjunctival hyperemia (25%),
  Dizziness: Neurologic: Asthenia (7%.), Dizziness (4% to 15%.), Headache
  Epiphora: Epiphora (25%), Eye irritation (25%)
  Eye irritation: Epiphora (25%), Eye irritation (25%)
  Headache: (4% to 17%.), Insomnia (2% to 12%.)
  Insomnia: (4% to 17%.), Insomnia (2% to 12%.)

## CCOC(=O)[C@H](CCc1ccccc1)N[C@@H](C)C(=O)N1Cc2ccccc2C[C@H]1C(=O)O [Quinapril (Accupril)]
In vivo
  Chest pain: Cardiovascular: Chest pain (2.4%), Hypotension (2.9%)
  Cough: Respiratory: Cough (2% to 4.3%)
  Dizziness: Neurologic: Dizziness (3.9% to 7.7%), Headache (1.7% to 6.9%)
  Fatigue: Other: Fatigue (2.6%)
  Headache: Neurologic: Dizziness (3.9% to 7.7%), Headache (1.7% to 6.9%)
  Hypotension: Cardiovascular: Chest pain (2.4%), Hypotension (2.9%)
  Nausea and vomiting: Gastrointestinal: Nausea and vomiting (1.4% to 2.4%)
  Serum blood urea nitrogen raised: Renal: Serum blood urea nitrogen raised (2% to 8%), Serum
  Serum creatinine raised: creatinine raised (2% to 11%)

## CN1CC[C@]23c4c5ccc(O)c4O[C@H]2[C@@H](O)C=C[C@H]3[C@H]1C5 [morphine, reference compound]
In vivo
  Drowsiness or Sedation: severe sedation and drowsiness

## CC(C)NCC(O)COc1ccc(CC(N)=O)cc1 (centres unmarked) [Atenolol (Tenormin)]
In vivo
  Bradyarrhythmia: Cardiovascular: Bradyarrhythmia (3% to 18%), Cold extremities
  Cold extremities: (12%), Hypotension (4% to 25%)
  Depression: Psychiatric: Depression (up to 12%)
  Dizziness: Neurologic: Dizziness (13%)
  Fatigue: Other: Fatigue (up to 26%)
  Hypotension: (12%), Hypotension (4% to 25%)
  Pulmonary embolism: Respiratory: Pulmonary embolism (1.2%)

## CS(=O)(=O)O.Fc1ccc([C@@H]2CCNC[C@H]2COc2ccc3c(c2)OCO3)cc1 [Brisdelle]
In vivo
  Asthenia: Neurologic: Asthenia (2.9% to 22%), Dizziness (6% to 14%),
  Constipation: Gastrointestinal: Constipation (4.9% to 16%), Diarrhea (7.9% to
  Diaphoresis: Dermatologic: Diaphoresis (1% to 14%)
  Dizziness: Neurologic: Asthenia (2.9% to 22%), Dizziness (6% to 14%),
  Insomnia: vasomotor symptoms, 6.3%), Insomnia (11% to 24%), Somnolence
  Nausea: ≤ 19.2%), Loss of appetite (2% to 9%), Nausea (up to 36.3%),
  Reduced libido: 9%), Reduced libido (males, 6% to 15%; females, 0% to 9%)
  Serious side effect, Other: Other: Serotonin syndrome
  Serious side effect, Psychiatric: Psychiatric: Depression, Exacerbation, Suicidal thoughts, Suicide
  Somnolence: (12.7% to 24%), Tremor (up to 14.7%)
  Tremor: (12.7% to 24%), Tremor (up to 14.7%)
  Xerostomia: Xerostomia (10.8% to 20.6%)

## CC(C)(C)NC[C@H](O)COc1nsnc1N1CCOCC1 [Timolol (Blocadren)]
In vivo
  Burning sensation in eye: sensation in eye (Ophthalmic, 12.5% to 20%), Dry eyes
  Cardiac dysrhythmia: Cardiovascular: Cardiac dysrhythmia (1%), Myocardial infarction
  Confusion: Neurologic: Confusion (13%), Dizziness (2.3% to 6%, oral),
  Depression: Psychiatric: Depression (9.2%, ophthalmic), Hallucinations (11%),
  Hallucinations: Psychiatric: Depression (9.2%, ophthalmic), Hallucinations (11%),
  Headache: Headache (1.7%, oral; 1% to 5%, ophthalmic)
  Psychotic disorder: Psychotic disorder (3%)
  Serious side effects, listed without incidence or only as rare: Cardiovascular: Cardiac dysrhythmia (1%), Myocardial infarction
In vivo, po
  Bradyarrhythmia: Cardiovascular: Angina, Bradyarrhythmia (5% to 9.1%, oral),
  Bronchospasm: Respiratory: Bronchospasm (0.6%, oral)
  Dizziness: Neurologic: Confusion (13%), Dizziness (2.3% to 6%, oral),
  Dyspnea: Respiratory: Cough, Dyspnea (1.7%, oral)
  Fatigue: Other: Fatigue (3.4% to 5%, oral), Infectious disease
  Headache: Headache (1.7%, oral; 1% to 5%, ophthalmic)
  Heart failure: Heart failure (8%, oral), Hypotension

## CNCCC(Oc1ccc(C(F)(F)F)cc1)c1ccccc1 (centres unmarked) [Fluoxetine (Prozac)]
In vivo
  Anxiety: Psychiatric: Anxiety (3% to 15%), Feeling nervous (3% to 14%)
  Asthenia: Neurologic: Asthenia (7% to 21%), Dizziness (2% to 11%),
  Diarrhea: Gastrointestinal: Diarrhea (8% to 18%), Indigestion (6% to 10%),
  Dizziness: Neurologic: Asthenia (7% to 21%), Dizziness (2% to 11%),
  Feeling nervous: Psychiatric: Anxiety (3% to 15%), Feeling nervous (3% to 14%)
  Indigestion: Gastrointestinal: Diarrhea (8% to 18%), Indigestion (6% to 10%),
  Influenza-like symptoms: Other: Influenza-like symptoms (3% to 12%)
  Insomnia: Insomnia (9% to 33%), Somnolence (5% to 17%), Tremor (3% to
  Nausea: Loss of appetite (3.8% to 17%), Nausea (12% to 29%), Xerostomia
  Pharyngitis: Respiratory: Pharyngitis (3% to 11%), Rhinitis (16% to 23%)
  Rhinitis: Respiratory: Pharyngitis (3% to 11%), Rhinitis (16% to 23%)
  Seizure: Neurologic: Seizure (0.2%)
  Xerostomia: (4% to 12%)

## CN1CCN2c3ncccc3Cc3ccccc3C2C1 (centres unmarked) [Mirtazepine (Remeron)]
In vivo
  ALT/SGPT level raised: Hepatic: ALT/SGPT level raised (2%)
  Asthenia: Neurologic: Asthenia (8%), Dizziness (7%), Somnolence (54%)
  Cirrhosis of liver: Hepatic: Cirrhosis of liver (less than 0.1%)
  Constipation: Gastrointestinal: Constipation (13%), Xerostomia (25%)
  Disturbance in thinking: Psychiatric: Disturbance in thinking (3%)
  Dizziness: Neurologic: Asthenia (8%), Dizziness (7%), Somnolence (54%)
  Grand mal seizure: Neurologic: Grand mal seizure (less than 0.1%), Status epilepticus
  Increased appetite: Endocrine metabolic: Increased appetite (17%), Serum triglycerides
  Serum triglycerides raised: raised (increases to 500 mg/dL or greater: 6%), Weight gain (body
  Somnolence: Neurologic: Asthenia (8%), Dizziness (7%), Somnolence (54%)
  Weight gain: weight increase of 7% or greater: adults 7.5%; pediatrics 49%)
  Xerostomia: Gastrointestinal: Constipation (13%), Xerostomia (25%)

## CC1=NN(c2ccc(C)c(C)c2)C(=O)/C1=N\Nc1cccc(-c2cccc(C(=O)O)c2)c1O [Promacta]
Adult
  AST/SGOT level raised: 4%
Chronic hepatitis C-associated thrombocytopenia and aplastic anemia
  Headache: thrombocytopenia and aplastic anemia, 21%; chronic idiopathic
Aplastic anemia
  Cough: Respiratory: Cough (Aplastic anemia, 23%; chronic ITP, pediatric,
  Diarrhea: 21%
  Fever: 14%
  Nausea: 33%), Pain in throat (Chronic idiopathic thrombocytopenic
  Pain in throat: 14%
Chronic ITP, pediatric
  ALT/SGPT level raised: 6%
  Cough: 9%
[1]
  Anemia: thrombocytopenia, 40%)
  Diarrhea: thrombocytopenia, 19%; chronic idiopathic thrombocytopenic
  Fever: 30%
  Liver failure: associated thrombocytopenia, 7%), Liver function tests abnormal
  Nausea: (Chronic hepatitis C-associated thrombocytopenia, 19%; chronic
  Portal vein thrombosis: C-associated thrombocytopenia, 1%), Thrombosis (chronic
  Thrombosis: hepatitis C-associated thrombocytopenia, 3%)
[2]
  Fatigue: purpura, 4%), Fever (Chronic hepatitis C-associated
  Headache: thrombocytopenic purpura, 10%)
  Pain in throat: 4%
Chronic idiopathic thrombocytopenic purpura, adults
  Diarrhea: 9%
Chronic idiopathic thrombocytopenic purpura, pediatric
  Diarrhea: 5%
In vivo
  Epistaxis: 13%
  Liver function tests abnormal: (11%)
  Pharyngitis: 4%
  Urinary tract infectious disease: Renal: Urinary tract infectious disease (5%)
  Vomiting: Vomiting (6%)
Listed without frequency
  Serious side effect, Hematologic: Hematologic: Bleeding, Portal vein thrombosis (chronic hepatitis
  Serious side effect, Hepatic: Hepatic: Hepatotoxicity, Liver failure (chronic hepatitis C-
  Serious side effect, Renal: Renal: Acute renal failure
pediatric
  AST/SGOT level raised: 5%

## CCCCCCOC(=O)NC(=N)c1ccc(NCc2nc3cc(C(=O)N(CCC(=O)OCC)c4ccccn4)ccc3n2C)cc1 [Pradaxa]
Atrial fibrillation
  Gastroesophageal reflux disease: disease (Atrial fibrillation, 5.5%), Gastrointestinal hemorrhage
DVT and pulmonary embolism
  Indigestion: pulmonary embolism, 7.5%)
  Intracranial hemorrhage: 0.1%
DVT and pulmonary embolism prophylaxis
  Bleeding: 10.5%
Listed without frequency
  Serious side effect, Hematologic: Thrombosis
  Serious side effect, Immunologic: Immunologic: Anaphylaxis
  Serious side effect, Respiratory: Respiratory: Bleeding, Alveolar
[3]
  Bleeding: 16.6%
  Bleeding, Major: 3.3%
  Gastrointestinal hemorrhage: 6.1%
  Gastrointestinal hemorrhage, Major: 1.6%)
  Intracranial hemorrhage: (nonvalvular atrial fibrillation, 0.3%; DVT and pulmonary
  Myocardial infarction: 0.7%
